Test results from patent US20260159536A1, “AKR1C3-ACTIVATED DNA ALKYLATING AGENT, AND MEDICAL APPLICATION THEREOF” (ASCENTAWITS PHARMACEUTICALS, LTD., priority 2021, published 2026).
One block for each molecule: values may come before it.

Experiments:
[1] = system: HuPrime model PA1222 human pancreatic cancer; experiment: In vivo pharmacodynamics, pancreatic cancer PA1222 PDX model; settings: for Tumor volume: 120 mg/kg i.p.
Procedure: The test was divided into groups of test drug Gemcitabine 120 mg/kg group, test drug Compound A 10 mg/kg and 7.5% anhydrous ethanol+7.5% polyoxyethylene (35) castor oil+85% glucose injection DSW (pH 7.4) vehicle control group, a total of 3 groups, with 5 mice per group. […] Test drug Gemcitabine (Gemcitabine) 120 mg/kg group was administered intraperitoneally, once a week for three consecutive weeks.

[2] = Chiral stability under long-term and accelerated storage conditions; assay type: physicochemical
Procedure: Isomer stability under long-term and accelerated conditions was studied.
Compound A and isomers A-P1 and A-P2 were investigated for traits and isomeric stability at −20±5° C., 5° C.±3° C., 25° C.±2° C. (60%±5% RH) and 40° C.±2° C.

[3] = Blood-brain barrier assay of Compound AST-2870 (plasma and brain concentration, PK); assay type: in vivo, CD-1 mice
Procedure: Three CD-1 mice were administered 10 mg/kg of test Compound AST-2870 by intraperitoneal injection at each time point. Blood and brain tissues were taken at 5 min, 15 min, 30 min, 1 h, 1.5 h, and 2 h after administration, and the concentration of the test substance in the samples was determined by LC/MS method. The corresponding results of the concentrations of Compound AST-2870 in blood and brain tissue versus time were made into a curve graph, as shown in FIG. 37. The corresponding test results of the ratio of the concentration of the Compound AST-2870 in brain tissue and blood versus time were made into a curve graph, as shown in FIG. 38.

[4] = target: T1, P-gp (Homo sapiens, UniProt P08183); experiment: P-gp substrate evaluation, MDCKII-MDR1 penetration test with or without Verapamil; assay type: in vitro ADME; settings: Verapamil 0 μM
T1 construct: expressed in transfected cells; host or cells: MDCKII-MDR1 cells
T1 sequence (P08183 whole entry): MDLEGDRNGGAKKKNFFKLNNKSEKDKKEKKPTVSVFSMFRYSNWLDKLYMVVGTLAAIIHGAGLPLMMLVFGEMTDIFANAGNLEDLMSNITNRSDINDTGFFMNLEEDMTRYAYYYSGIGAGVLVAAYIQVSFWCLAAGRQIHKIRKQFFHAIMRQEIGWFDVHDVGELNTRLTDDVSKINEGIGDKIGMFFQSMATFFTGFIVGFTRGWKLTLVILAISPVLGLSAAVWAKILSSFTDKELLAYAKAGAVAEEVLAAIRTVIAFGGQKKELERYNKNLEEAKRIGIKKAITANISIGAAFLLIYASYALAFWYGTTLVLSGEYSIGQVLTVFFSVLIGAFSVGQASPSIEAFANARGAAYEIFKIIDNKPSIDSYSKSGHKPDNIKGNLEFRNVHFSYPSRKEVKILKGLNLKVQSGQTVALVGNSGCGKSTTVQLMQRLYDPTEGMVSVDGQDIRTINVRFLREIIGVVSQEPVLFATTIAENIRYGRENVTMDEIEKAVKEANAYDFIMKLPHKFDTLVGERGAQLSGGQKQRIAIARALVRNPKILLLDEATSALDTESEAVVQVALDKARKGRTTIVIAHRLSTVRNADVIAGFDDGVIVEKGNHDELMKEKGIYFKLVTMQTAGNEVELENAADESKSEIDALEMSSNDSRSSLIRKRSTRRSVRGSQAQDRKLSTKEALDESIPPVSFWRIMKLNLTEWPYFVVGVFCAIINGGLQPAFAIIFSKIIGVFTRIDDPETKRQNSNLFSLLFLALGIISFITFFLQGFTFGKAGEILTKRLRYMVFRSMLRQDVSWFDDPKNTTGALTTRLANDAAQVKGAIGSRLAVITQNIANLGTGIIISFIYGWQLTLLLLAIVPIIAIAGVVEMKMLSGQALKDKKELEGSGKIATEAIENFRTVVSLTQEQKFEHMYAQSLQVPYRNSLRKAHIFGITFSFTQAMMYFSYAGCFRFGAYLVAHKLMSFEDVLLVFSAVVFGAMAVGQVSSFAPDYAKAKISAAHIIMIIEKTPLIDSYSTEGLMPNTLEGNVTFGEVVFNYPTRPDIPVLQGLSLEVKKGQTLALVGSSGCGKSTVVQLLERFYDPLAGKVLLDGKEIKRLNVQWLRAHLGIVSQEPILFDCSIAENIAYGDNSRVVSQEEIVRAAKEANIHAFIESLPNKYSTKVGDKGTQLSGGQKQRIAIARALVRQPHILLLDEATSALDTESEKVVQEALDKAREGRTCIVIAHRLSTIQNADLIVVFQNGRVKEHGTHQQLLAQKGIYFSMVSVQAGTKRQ
Procedure: The conditions of the incubator were set as 37° C., 5% CO2, and 95% of the relative humidity.
After that, the MDCKII-MDR1 cells can be used for the penetration test.
(1) MDCKII-MDR1 transwell culture plate was taken out from the incubator.
(6) The upper and lower transportations were pooled and then incubated at 37° C. for 2 h.
After the sample tubes were vortexed for 10 min, and centrifuged at 3220 g for 30 min. […] Each sample was adopted to the three parallel incubation.
Efflux Ratio was calculated by the following formula: […]
Recovery was calculated by the following formula: […]

[5] = system: human lung cancer NCI-H460-Luc2 cells (intracranial); experiment: In vivo pharmacodynamics, NCI-H460-Luc2 intracranial inoculation CDX model; design: species or system BALB/c nude mice; settings: 20 mg/kg, i.p. QWx3; Day 11
Procedure: The experiment was divided into groups of test drug Paclitaxel 20 mg/kg group, Compound A 2 mg/kg, 4 mg/kg and 8 mg/kg groups and 10% ethanol+10% polyoxyethylene castor oil+80% glucose injection DSW (pH 7.42) vehicle control group (Vehicle group), with 6 mice per group. […] The positive drug Paclitaxel 20 mg/kg group was administered by intraperitoneal injection and administered once a week for 3 weeks.
The pharmacodynamic analysis of each group in the human NCI-H460-luc intracranial inoculation model was performed based on the measured bioluminescence values on day 11 after administration, and the results were shown in Table 14.

[6] = system: HuPrime model LU2505 human lung cancer; experiment: In vivo pharmacodynamics, lung cancer LU2505 PDX model; design: species or system BALB/c nude mice; settings: for Tumor volume: 20 mg/kg i.p.
[7] = system: HuPrime model LU0884 human lung cancer; experiment: In vivo pharmacodynamics, lung cancer LU0884 PDX model; design: species or system BALB/c nude mice; settings: for Size of tumor volume: Group 2, Paclitaxel 20 mg/kg
[8] = system: human lung cancer NCI-H460 cells; experiment: In vivo pharmacodynamics, NCI-H460 subcutaneous xenograft model; design: species or system BALB/c nude mice; settings: for Tumor volume: 100 mg/kg i.p.
[9] = 25° C. ± 2° C./60% ± 5% RH, 1 month
[10] = 25° C. ± 2° C./60% ± 5% RH, 3 months
[11] = 40° C. ± 2° C./75% ± 5% RH, 1 month
[12] = brain tissues, 10 mg/kg intraperitoneal injection, Mean
[13] = plasma, 10 mg/kg intraperitoneal injection, Mean
[14] = 20 mg/kg i.p. every four days x4, Day 28
[15] = Paclitaxel 20 mg/kg, Q4Dx4, i.p., Day 28

SMILES: Nc1ccn([C@@H]2O[C@H](CO)[C@@H](O)C2(F)F)c(=O)n1 [Gemcitabine, reference compound]
- Tumor volume ([1]; Day 0): 111.91 mm^3
- Tumor volume ([1]; Day 3): 136.17 mm^3
- Tumor volume ([1]; Day 7): 153.75 mm^3
- Tumor volume ([1]; Day 10): 157.55 mm^3
- Tumor volume ([1]; Day 14): 147.44 mm^3
- Tumor volume ([1]; Day 17): 136.71 mm^3
- Tumor volume ([1]; Day 21): 138.01 mm^3
- Tumor volume ([1]; Day 24): 153.69 mm^3
- Tumor volume ([1]; Day 28): 166.11 mm^3
- Relative tumor volume (x ± S) ([1]; 120 mg/kg, QWx3, i.p., Day 28): 1.49 ± 0.19
- T/C (%) ([1]; 120 mg/kg, QWx3, i.p., Day 28): 42.83%
- TGI (%) ([1]; 120 mg/kg, QWx3, i.p., Day 28): 57.17%
- Tumor volume (x ± S) ([1]; 120 mg/kg, QWx3, i.p., Day 28): 166.11 ± 24.40

SMILES: O=[N+]([O-])c1ccc(C(OP(=O)(N2CC2)N2CC2)C(F)(F)F)cc1Oc1ccc(-c2ccc(F)cc2)c(F)c1 (single isomer, unassigned) [A-P1]
- Isomer peak A-P1 ([2]; 0 month): 99.92%
- Isomer peak A-P2 ([2]; 0 month): 0.08%
- Isomer peak A-P1 ([2]; 5° C. ± 3° C., 1 month): 99.92%
- Isomer peak A-P2 ([2]; 5° C. ± 3° C., 1 month): 0.08%
- Isomer transformation ([2]; 5° C. ± 3° C., 1 month): 0.00%
- Isomer peak A-P1 ([2]; 5° C. ± 3° C., 3 months): 99.92%
- Isomer peak A-P2 ([2]; 5° C. ± 3° C., 3 months): 0.08%
- Isomer transformation ([2]; 5° C. ± 3° C., 3 months): 0.00%
- Isomer peak A-P1 [2, 9]: 99.92%
- Isomer peak A-P2 [2, 9]: 0.08%
- Isomer transformation [2, 9]: 0.00%
- Isomer peak A-P1 [2, 10]: 99.92%
- Isomer peak A-P2 [2, 10]: 0.08%
- Isomer transformation [2, 10]: 0.00%
- Isomer peak A-P1 [2, 11]: 99.91%
- Isomer peak A-P2 [2, 11]: 0.09%
- Isomer transformation [2, 11]: 0.01%
- colour and chirality after storage ([2]; −20° C., 5° C., 25° C./60% RH 3 months, 40° C./75% RH 1 month): essentially no change
- Isomer peak A-P1 ([2]; −20 ± 5° C., 3 months): 99.92%
- Isomer peak A-P2 ([2]; −20 ± 5° C., 3 months): 0.08%
- Isomer transformation ([2]; −20 ± 5° C., 3 months): 0.00%

SMILES: CC(OP(=O)(N1CC1)N1CC1)c1ccc([N+](=O)[O-])c(Oc2cccc(C(=O)N(C)C)c2)c1 (centres unmarked) [AST-2870]
- concentration in brain ([3]; 10 mg/kg i.p., after 30 minutes): lower than the lower limit of quantitation
- blood-brain barrier penetration ([3]; 10 mg/kg intraperitoneal injection): could not cross the blood-brain barrier
- AUCInf Ratio (Brain/Plasma) ([3]; 10 mg/kg intraperitoneal injection, Mean): 0.0227
- AUCInf [3, 12]: 16.5 ng·h/g
- AUClast [3, 12]: 16.3 ng·h/g
- Tmax [3, 12]: 4.8 min
- T½ [3, 12]: 4.48 min
- AUCInf [3, 13]: 725 ng·h/mL
- AUClast [3, 13]: 725 ng·h/mL
- Cmax [3, 13]: 4023 ng/mL
- T½ [3, 13]: 9 min

- Efflux Ratio [4]: 2.90
SMILES: COc1cc2nc(N3CCN(C(=O)c4ccco4)CC3)nc(N)c2cc1OC [Prazosin]

SMILES: CC(=O)O[C@H]1C(=O)[C@@]2(C)[C@H]([C@H](OC(=O)c3ccccc3)[C@]3(O)C[C@H](OC(=O)[C@H](O)[C@@H](NC(=O)c4ccccc4)c4ccccc4)C(C)=C1C3(C)C)[C@]1(OC(C)=O)CO[C@@H]1C[C@@H]2O [Paclitaxel, reference compound]
- Bioluminescence Value (Day 11) [5]: 4184.52 ± 1679.77 ×10^5 photon/second
- T/C (%) [5]: 130.82%
- TGI (%) [5]: −62.45%
- Relative tumor volume (x ± S) [6, 14]: 2.29 ± 1.37
- T/C (%) [6, 14]: 21.40%
- TGI (%) [6, 14]: 78.60%
- Tumor volume (x ± S) ([6]; 20 mg/kg i.p. every four days x4, Day 28, in mm³ (unit assumed)): 250.47 ± 157.81
- Tumor volume ([6]; Day 0): 103.12 mm^3
- Tumor volume ([6]; Day 4): 133.63 mm^3
- Tumor volume ([6]; Day 7): 133.14 mm^3
- Tumor volume ([6]; Day 11): 132.14 mm^3
- Tumor volume ([6]; Day 14): 164.42 mm^3
- Tumor volume ([6]; Day 18): 207.89 mm^3
- Tumor volume ([6]; Day 21): 238.63 mm^3
- Tumor volume ([6]; Day 25): 231.63 mm^3
- Tumor volume ([6]; Day 28): 250.47 mm^3
- Size of tumor volume ([7]; Day 0): 110.11 mm^3
- Size of tumor volume ([7]; Day 4): 157.57 mm^3
- Size of tumor volume ([7]; Day 7): 229.87 mm^3
- Size of tumor volume ([7]; Day 11): 250.46 mm^3
- Size of tumor volume ([7]; Day 14): 292.52 mm^3
- Size of tumor volume ([7]; Day 18): 381.53 mm^3
- Size of tumor volume ([7]; Day 21): 402.62 mm^3
- Size of tumor volume ([7]; Day 25): 492.50 mm^3
- Size of tumor volume ([7]; Day 28): 528.88 mm^3
- T/C (%) [7, 15]: 78.79%
- TGI (%) [7, 15]: 21.21%
- Relative tumor volume (x ± S) ([7]; Paclitaxel 20 mg/kg, Q4Dx4, i.p., Day 28, mean ± standard error): 4.72 ± 1.26
- Tumor volume (x ± S) ([7]; Paclitaxel 20 mg/kg, Q4Dx4, i.p., Day 28, mean ± standard error, in mm³ (unit assumed)): 528.88 ± 147.69
- tumor inhibitory effect ([7]; Paclitaxel 20 mg/kg, Compound A 2.5, 5, 10 mg/kg): weak tumor inhibitory effect

SMILES: N.N.O=C([O-])C1(C(=O)[O-])CCC1.[Pt+2] [Carboplatin, reference compound]
- Tumor volume ([8]; Day 7): 145.46 mm^3
- Tumor volume ([8]; Day 10): 262.15 mm^3
- Tumor volume ([8]; Day 14): 409.97 mm^3
- Tumor volume ([8]; Day 17): 529.44 mm^3
- Tumor volume ([8]; Day 21): 761.56 mm^3
- Tumor volume ([8]; Day 24): 960.42 mm^3
- Tumor volume ([8]; Day 28): 1073.28 mm^3
- Tumor volume ([8]; Day 31): 1230.93 mm^3
- Tumor volume ([8]; Day 35): 1577.99 mm^3
- Relative tumor volume (x ± S) ([8]; 100 mg/kg, QWx3, i.p., Day 31): 8.58 ± 1.16
- T/C (%) ([8]; 100 mg/kg, QWx3, i.p., Day 31): 64.81%
- TGI (%) ([8]; 100 mg/kg, QWx3, i.p., Day 31): 35.19%
- Tumor volume (x ± S) ([8]; 100 mg/kg, QWx3, i.p., Day 31, in mm³ (unit assumed)): 1230.93 ± 258.17
